Test results taken from PubChem BioAssay (NCI).
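All cell lines were grown in 96-well plates and treated with compound for 48 hours. TGI: concentration producing complete growth inhibition.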 *1 amine or outer side, *2 acyl side, *3 side chain or, on linkers, in order; H or OH if unused. Where a SMILES comes first, the peptide text is derived from it. [ ]: non-standard residue; d: D form. X32 = C[C@H](N[*:1])C(=O)C(C)(C)C(=O)[*:2]; Hmpa(2S,3S) = CC[C@H](C)[C@H](O)C(=O)O; NMeY = CN[C@@H](Cc1ccc(O)cc1)C(=O)O; NMeL = CN[C@@H](CC(C)C)C(=O)O; NMeV = CN[C@H](C(=O)O)C(C)C; βAla = NCCC(=O)O

How the values were obtained:
Assay in all cases: growth of human tumour cells (NCI), 48 h
ACHN renal = tested on: ACHN renal
RXF 393 renal = tested on: RXF 393 renal
M14 melanoma = tested on: M14 melanoma
MDA-MB-435 = tested on: MDA-MB-435
IGROV1 ovarian = tested on: IGROV1 ovarian
K-562 leukemia = tested on: K-562 leukemia
HOP-62 NSCLC = tested on: HOP-62 NSCLC
UACC-257 melanoma = tested on: UACC-257 melanoma
MDA-N = tested on: MDA-N
SK-MEL-5 melanoma = tested on: SK-MEL-5 melanoma

Structure (SMILES)	TGI (ACHN renal)	TGI (RXF 393 renal)	TGI (M14 melanoma)	TGI (MDA-MB-435)	TGI (IGROV1 ovarian)	TGI (K-562 leukemia)	TGI (HOP-62 NSCLC)	TGI (UACC-257 melanoma)	TGI (MDA-N)	TGI (SK-MEL-5 melanoma)
COc1cc(CNNC(N)=S)cc(OC)c1OC	> 100 µM	> 100 µM	> 100 µM	> 100 µM	> 100 µM	> 100 µM	> 100 µM	> 100 µM	> 100 µM	> 100 µM
O=C1Oc2cc(O)cc(/C=C/c3ccc(O)cc3)c2[C@@]12c1c(O)cc(O)cc1OC2c1cccc(O)c1 (stereo not given in full)	> 100 µM	94.3 µM	> 100 µM	66.1 µM	31 µM	> 100 µM	65.5 µM	67.5 µM	93.2 µM	43.3 µM
COC(=O)c1ccccc1C1CN=NC12Cc1cc(C)ccc1C2=O (stereo not given)	> 100 µM	> 100 µM	> 100 µM	> 100 µM	> 100 µM	> 100 µM	> 100 µM	> 100 µM	> 100 µM	> 100 µM
CC[C@H](C)[C@@H]1OC(=O)CCNC(=O)[C@@H](C)NC(=O)C(C)(C)C(=O)[C@H](C)NC(=O)[C@H](Cc2ccc(OC)cc2)N(C)C(=O)[C@H](C(C)C)N(C)C(=O)CNC(=O)[C@H](CC(C)C)N(C)C(=O)CNC1=O (cyclo(G[NMeL]G[NMeV][NMeY](Me)[X32][dA][βAla][Hmpa(2S,3S)]))	> 38 µM	2 µM	10.2 µM	> 42.7 µM	4.16 µM	> 24.5 µM	10.6 µM	> 25.9 µM	> 31.8 µM	0.228 µM
C(=C\c1ccco1)/c1cccc(/C=C/c2ccco2)n1	> 50 µM	> 50 µM	> 50 µM	> 50 µM	> 50 µM	> 50 µM	> 50 µM	> 50 µM	> 50 µM	> 50 µM
COc1cc(/C=c2\sc3n(c2=O)C(c2ccc(Cl)cc2)C2=C(CCCC2C)N=3)cc(OC)c1OC (stereo not given)	> 100 µM	> 100 µM	> 100 µM	> 100 µM	> 100 µM	> 100 µM	> 100 µM	> 100 µM	> 100 µM	> 100 µM
N[C@H]1CCCC[C@@H]1N1C(=O)c2ccccc2C1(O)c1ccc(Cl)cc1 (stereo not given in full)	27 µM	20.4 µM	23.6 µM	21.1 µM	25.7 µM	13.2 µM	29.6 µM	11.7 µM	25 µM	22.5 µM
O=C(NCCCCCCNC(=O)c1cc(-c2ccccc2)nc2ccccc12)c1cc(-c2ccccc2)nc2ccccc12	> 100 µM	> 100 µM	> 100 µM	> 100 µM	> 100 µM	> 100 µM	> 100 µM	> 100 µM	> 100 µM	> 100 µM
Cc1nc2c(=O)n(C)ncc2[nH]1	> 100 µM	> 100 µM	> 100 µM	> 100 µM	> 100 µM	> 100 µM	> 100 µM	> 100 µM	> 100 µM	> 100 µM
CCCCCCCCCCCCCCCCCCN(C)CC(COP(=O)([O-])OCC[N+](C)(C)C)OC (stereo not given)	48.8 µM	8.55 µM	29.6 µM	97 µM	6.63 µM	54.6 µM	28.4 µM	56.4 µM	> 100 µM	43.8 µM
Cc1ccc(S(=O)(=O)NNCNC(=O)c2ccccc2)cc1	> 100 µM	> 100 µM	> 100 µM	> 100 µM	> 100 µM	> 100 µM	> 100 µM	> 100 µM	> 100 µM	> 100 µM
O=C1C(c2c(O)[nH]c3ccc(Br)cc23)=Nc2ccccc21	12.2 µM	6.47 µM	32.4 µM	40.1 µM	13 µM	> 100 µM	32.6 µM	57.3 µM	34.8 µM	18.6 µM
O=[N+]([O-])c1ccc(N/N=C/c2ccc(OCCCCCCCCCCCO)cc2)c([N+](=O)[O-])c1	> 71.7 µM	4.6 µM	3.22 µM	11.7 µM	67.4 µM	2.97 µM	19.6 µM	15.2 µM	13 µM	4.66 µM
Cc1cc(=O)oc2c(CNC(Cc3ccccc3)C(=O)O)c(O)ccc12 (stereo not given)	> 100 µM	> 100 µM	> 100 µM	> 100 µM	> 100 µM	> 100 µM	> 100 µM	> 100 µM	> 100 µM	> 100 µM
CC1=C(C(=O)Nc2ccccc2)C2(CCCCC2)C(C#N)=C(SCC(=O)Nc2ccc(Br)cc2)N1	19.8 µM	14.1 µM	10.9 µM	29.6 µM	14.6 µM	23 µM	32.6 µM	> 43.4 µM	17.2 µM	8.39 µM
CO/N=C(\C)CCC#Cc1ccccc1C(=O)OC	> 10 µM	> 10 µM	> 10 µM	> 10 µM	> 10 µM	> 10 µM	> 10 µM	> 10 µM	> 10 µM	> 10 µM
CC(C)NC(=O)CN1CCN(c2c(O)c3c(c(O)c2Cl)C(=O)C=CC3=O)CC1	4.9 µM	2.92 µM	2.93 µM	3.38 µM	4.66 µM	> 100 µM	18.6 µM	3.25 µM	3.43 µM	3.45 µM
CCOC(=O)C(SCCO)C(C(=O)OCC)n1ccc(=O)[nH]c1=O (stereo not given)	> 66.6 µM	81.4 µM	> 90.5 µM	> 58.5 µM	> 95 µM	36.1 µM	> 96.6 µM	> 100 µM	97.8 µM	> 100 µM
C=CC(Cl)(CBr)CCC(Br)C(C)(C)Cl (stereo not given)	38.2 µM	31.2 µM	29 µM	30.3 µM	26.3 µM	72.4 µM	30.6 µM	27.5 µM	32.4 µM	25.8 µM
